In patent US5650442A (priority 1994, dated 1997):
Entries after “also recorded” stand apart in the source; their conditions may differ.

Legend:
[1] = system: Chinese hamster V79 lung fibroblasts; assay: Radiation survival of hypoxic V79 cells (metabolism-mediated oxygen depletion), clonogenic assay, SER; assay type: cell-based; details: for modification of hypoxic radiosensitivity: 2.0 mM; for SER: 2.00 mM, hypoxic, 1% surviving fraction level, ± SD
Description: (§1) Chinese hamster V79 lung fibroblasts were cultured in F12 medium supplemented with 10% fetal calf serum and antibiotics. […] The assay system was specifically designed to evaluate radiation sensitivity of cells exposed to radiation under both aerobic and hypoxic conditions (Mitchell et al., Radiat. Res., 96, 422-428 (1983); Russo et al., Radiat. Res., 103, 232-239 (1985); and DeGraff et al., Int. J. Radiat. Oncol. Biol. Phys., 16, 1021-1024 (1989)).
(§2) When cultured cells were exposed to DEA/NO in subsequent examples, DEA/NO in F12 medium with 10 mM HEPES buffer, pH 7.0, was used. […] Control cells in subsequent examples were exposed to 0.02N NaOH, instead of DEA/NO.
The induction of hypoxia in dense cell suspensions by metabolism-mediated oxygen depletion was carried out as described by Mitchell et al. (supra) and Phillips et al. (Int. J. Radiat. Oncol. Biol. Phys., 12, 1627-1635 (1986)). Briefly, stock cultures of exponentially growing Chinese hamster V79 lung fibroblasts in 850 cm^2 roller bottles were trypsinized, rinsed with medium, and counted. Samples of 10^8 cells were then placed in 15 ml centrifuge tubes, centrifuged at 1,000 rpm for 5 min at 25° C., and rinsed once with medium or medium containing DEA/NO (final concentrations ranging from 0.1-2.0 mM), nitrite, diethylamine, or DEA/NO that had been allowed to decompose in full medium overnight at 37° C.
The cell suspension was taken up into a 3 ml glass syringe with a 18 gauge spinal needle. Air bubbles were removed, and a 25 gauge needle was fitted onto the syringe. The syringe was rotated by hand at room temperature for 20 min to allow for cellular metabolic oxygen consumption. The syringe was then placed in a lucite block and irradiated. After a given dose of radiation, 1-3 drops of cell suspension were discarded, and 1-2 drops were collected in tubes containing drug-free medium. In this manner an entire hypoxic survival curve for a given treatment condition can be obtained from a single syringe.
(§3) Hypoxic Chinese hamster V79 lung fibroblasts of Example 2 were irradiated at room temperature with 4 MeV photons from a linear accelerator at a dose rate of 1.5 Gy/min. Full electron equilibrium was ensured for all irradiations.
(§4) Following irradiation, the various cell suspensions were pipetted, counted, diluted, and plated for macroscopic colony formation. Each dose determination was plated in triplicate and experiments were repeated a minimum of two times. Plates were incubated for seven days, after which colonies were fixed with methanol/acetic acid (3:1), stained with crystal violet, and counted. Colonies containing >50 cells were scored and graphed as FIGS. 1-3. Error bars in the graphs represent the standard deviation of the mean and are shown when larger than the symbol used to designate a data point. Survival curve data were fitted using a linear quadratic model of Albright (Radiat. Res., 112, 331-340 (1987)), and the survival curves shown in the figures represent the best fit curves for the experimental data points. Sensitizer enhancement ratios (SER) were calculated by dividing the radiation dose for control hypoxic conditions by the radiation dose for various agents under hypoxic conditions at the 1% surviving fraction level.
(§5) Radiation survival curves for V79 cells exposed to varying concentrations of DEA/NO and various DEA/NO decomposition products under hypoxic conditions (metabolic hypoxia induction) are shown in FIG. 1A, which is a graph of the surviving fraction versus dose (Gy).

[2] = system: Chinese hamster V79 lung fibroblasts; assay: Cytotoxicity of the agents alone to V79 cells, clonogenic assay; details: 2.0 mM
Description: as §1, §2
as §5, with “(Gy). Lines in FIG. 1A represent control (.circle-solid.) and 0.1 mM (Δ), 0.5 mM (.largecircle.), 1.0 mM (.quadrature.), and 2.0 mM (.box-solid.) DEA/NO. Survival curves were corrected for drug cytotoxicity as appropriate.” for “(Gy).”
DEA/NO (2.0 mM) was allowed to decompose to liberate NO in medium maintained at 37° C. overnight in a flask open to the air for use as an additional control. The medium containing the DEA/NO decomposition products was then used to evaluate possible effects on radiosensitization.

[3] = system: Chinese hamster V79 lung fibroblasts; assay: Radiation survival of aerobic V79 cells, clonogenic assay; assay type: cell-based; details: 2.0 mM
Description: as §1, §2, §4

normal tissues = details: clinical radiotherapy trials; cited from earlier work
[4] = system: Chinese hamster V79 cells; assay: Survival of hypoxic V79 cells after a single radiation dose; assay type: cell-based; details: vs control cells
Description: Chinese hamster V79 cells were exposed to 15 Gy radiation under hypoxic conditions in the absence or presence of 1 mM SPER/NO (H2 N(CH2)3 N[N(O)NO]^- (CH2)4 NH2^+ (CH2)3 NH2).
Chinese hamster V79 cells were exposed to 20 Gy radiation under hypoxic conditions in the absence or presence of 2 mM SNAP.
Chinese hamster V79 cells were exposed to a single 20 Gy dose of radiation in the absence or presence of 2 mM SIN-1 or PAPA/NO. […] The data are consistent with the requirement of SIN-1 for oxygen, unlike the NONOates, which release NO independent of oxygen levels.

[5] = system: Chinese hamster V79 fibroblasts; assay: Protection of V79 cells from cisplatin cytotoxicity; assay type: cell-based; details: 1 mM, 1 hr
Description: Chinese hamster V79 fibroblasts were exposed to varying concentrations of cisplatin under aerobic conditions for 1 hr in the presence or absence of 1 mM PAPA/NO, n-propyl-1,3-propane diamine (PPD), or released PAPA/NO under aerobic conditions. Methods used were as described in Examples 2 and 13.

[6] = system: Chinese hamster V79 fibroblasts; assay: Chemosensitization of V79 cells to bioreductive agents (mitomycin C, SR 4233); details: hypoxic, 1 hr
[7] = system: transplantable murine tumor; details: mouse, in vivo; cited from earlier work
[8] = system: embryohal ovarian carcinoma (EOC) ascites tumors; assay: Survival of mice with EOC ascites tumors treated with melphalan with or without DEA/NO; assay type: in vivo, C3H mice
Description: Female C3H mice with embryohal ovarian carcinoma (EOC) ascites tumors were generated by intraperitoneal injection of 1.0×10^5 EOC cells at 10 weeks. Eight days later, when ascites were grossly evident, the animals were injected intraperitoneally with phosphate-buffered saline (PBS) as a control, melphalan (6.25 mg/kg), or melphan in combination with DEA/NO (70 mg/kg). Animals were assessed daily for survival.
FIG. 17 is a graph of % survival of animals versus days after treatment showing survival curves for animals treated with melphalan in the presence or absence of DEA/NO compared to control animals. Median survival of the control group was 15 days. Median survival of the group of mice treated with melphalan alone was 20 days, whereas median survival of the group of mice treated with melphalan and DEA/NO was 27 days.

[9] = system: Chinese hamster V79 lung fibroblasts; assay: Radiation survival of hypoxic V79 monolayers gassed with nitrogen and exposed to NO gas; assay type: cell-based
Description: as §3, §4

cells in culture = details: aerobic (~20% oxygen) vs hypoxic (<0.5% oxygen); cited from earlier work
rodent tumors = details: hyperbaric oxygen (100%); cited from earlier work
hypoxic cells = details: without the nitrobenzoyl group; cited from earlier work
hypoxic bacterial cells = details: cited from earlier work
lungs = details: NO gas, in vivo; cited from earlier work

Compound: CCNCC [Diethylamine, diethylamine, reference compound]
- modification of hypoxic radiosensitivity [1]: nor did any of these agents significantly modify hypoxic radiosensitivity
- SER [1]: 1.0
- cytotoxicity of decomposition products alone [2]: Neither nitrite, diethylamine, or decomposed DEA/NO alone resulted in any cytotoxicity
- effect on aerobic radiosensitivity [3]: did not significantly alter the aerobic radiosensitivity

Compound: COCC(O)Cn1ccnc1[N+](=O)[O-] (centres unmarked) [Misonidazole, misonidazole]
- toxicity to normal tissues (normal tissues): toxic to normal tissues, causing peripheral neuropathy

Compound: O=NO [Nitrite, nitrite, reference compound]
- modification of hypoxic radiosensitivity [1]: nor did any of these agents significantly modify hypoxic radiosensitivity
- SER [1]: 1.0
- cytotoxicity of decomposition products alone [2]: Neither nitrite, diethylamine, or decomposed DEA/NO alone resulted in any cytotoxicity
- effect on aerobic radiosensitivity [3]: did not significantly alter the aerobic radiosensitivity

Compound: CCCN(CCCN)/[N+]([O-])=N/O [PAPA/NO]
- susceptibility of hypoxic cells to radiation ([4]; 2 mM plus 20 Gy, Example 10): much more susceptible to radiation than control cells
- protection against aerobic cisplatin-induced cytotoxicity [5]: protected V79 fibroblasts against aerobic cisplatin-induced cytotoxicity
- enhancement of hypoxic cytotoxicity of SR 4233 ([6]; 25 μm SR 4233, 1 mM): enhance the hypoxic cytotoxicity of SR 4233
- colonies formed when 100,000 cells were plated ([6]; 25 μm SR 4233 plus 1 mM): no colonies were formed

Compound: Cl.N=c1c[n+](N2CCOCC2)[n-]o1 [SIN-1, 3-morpholino-sydnonimine hydrochloride, reference compound]
- susceptibility of hypoxic cells to radiation ([4]; 2 mM plus 20 Gy, Example 10): not significantly sensitized to radiation as compared to control cells
- enhancement of tumor radiation sensitivity [7]: enhances the radiation sensitivity of a transplantable murine tumor

Compound: CC(=O)N[C@H](C(=O)O)C(C)(C)SN=O [SNAP, S-nitroso-N-acetyl penicillamine, reference compound]
- susceptibility of hypoxic cells to radiation ([4]; 2 mM plus 20 Gy, Example 7): significantly more susceptible to radiation than control cells

Compound: NCCCNCCCCN(CCCN)/[N+]([O-])=N/O [SPER/NO]
- susceptibility of hypoxic cells to radiation ([4]; 1 mM plus 15 Gy): more susceptible to radiation than control cells

Compound: N[C@@H](Cc1ccc(N(CCCl)CCCl)cc1)C(=O)O [melphalan]
- Overall survival vs control group ([8]; log-rank testing): significantly longer than the control group
- Median survival ([8]; melphalan 6.25 mg/kg i.p., with or without DEA/NO 70 mg/kg): 20 days

Compound: O=O [oxygen]
- EC50 ([9]; Cricetulus griseus, Fibroblast, hypoxic cell radiosensitization, read-out: k value (concentration required to yield half the maximum effect)): 2500 mg/L
- enhancement of killing of cells in culture with X-rays (factor) (cells in culture): 2-3
- hypoxic radiosensitization in rodent tumors (rodent tumors): some degree of hypoxic radiosensitization in rodent tumors

Compound: NCCCCNCCCN [spermidine]
- sensitizing properties (hypoxic cells): failed to demonstrate any sensitizing properties whatsoever

Compound: NCCCNCCCCNCCCN [spermine]
- sensitizing properties (hypoxic cells): failed to demonstrate any sensitizing properties whatsoever

Compound: nitric oxide [NO gas]
- SER ([9]; 10^5 ppm NO, hypoxic): 3.2
- hypoxic cell radiosensitization ([9]; NO gas vs control / oxygen): potent hypoxic cell radiosensitizer; also recorded: not as efficient as oxygen in hypoxic cell radiosensitization
- toxicity in the absence of radiation (hypoxic bacterial cells): nontoxic in the absence of radiation
- radiosensitization of hypoxic bacterial cells (hypoxic bacterial cells; ionizing radiation): sensitizes hypoxic bacterial cells to ionizing radiation
- damage on administration of high concentrations (lungs): damage to the lungs
